From ChEMBL document CHEMBL6127119 (J Med Chem, 2024)
Converted amounts (≈) assume the structure as drawn. The source made the active and inactive calls. The rule behind the calls is not given here.

Key:
Staphylococcus aureus [1] = assay: Post-antibiotic effect in Staphylococcus aureus MRSA252 at 10 times measured after 7 hrs; format: functional, organism-based
Enterococcus faecalis [2] = assay: Induction of inner membrane permeabilization in Enterococcus faecalis ATCC29212 measured for 20 mins by DiSC3(5) staining based analysis; format: functional, organism-based; details: dose 1-128 µg/ml
Acinetobacter baumannii [3] = assay: Antibacterial activity against Carbapenem-resistant Acinetobacter baumannii clinical isolate incubated for 16 to 24 hrs by CLSI based broth microdilution method; format: functional; details: time 16-24 hrs
Staphylococcus aureus [4] = assay: Induction of drug resistance in vancomycin-sensitive Staphylococcus aureus MRSA252 assessed as change in MIC measured after 16 days of serial passages by broth microdilution method; format: functional, organism-based; details: time 16.0 day
Staphylococcus aureus [5] = assay: Induction of drug resistance in vancomycin-intermediate Staphylococcus aureus Mu50 assessed as change in MIC after 20 passages by broth microdilution method; format: functional, organism-based
Escherichia coli [6] = assay: Bactericidal activity against Escherichia coli AB1157 assessed as reduction in bacterial count at 4 times MIC measured after 24 hrs by time kill assay; format: functional
Enterococcus faecium [7] = assay: Potency index, ratio of Vancomycin MIC to test compound MIC for vancomycin-resistant Enterococcus faecium incubated for 16 to 24 hrs by CLSI based broth microdilution method; format: functional; details: time 16-24 hrs
Escherichia coli [8] = assay: Bactericidal activity against Escherichia coli AB1157 assessed as reduction in bacterial count measured after 24 hrs by time kill assay; format: functional, organism-based
Staphylococcus aureus [9] = assay: Induction of cytoplasmic membrane permeabilization in methicillin-resistant Staphylococcus aureus MRSA252 measured for 40 mins by PI/NPN staining based analysis; format: functional, organism-based; details: dose 1-128 µg/ml
Staphylococcus aureus [10] = assay: Induction of membrane disruption in Staphylococcus aureus MRSA252 assessed as leakage of protoplasm content at 1 to 8 ug/ml incubated for 4 to 24 hrs by TEM analysis; format: functional, organism-based; details: dose 1-8 µg/ml, time 4-24 hrs
Peptidoglycan [11] = assay: Binding affinity to Ac-Lys(Gly5)-D-Ala-D-Ala lipid II model peptide moiety assessed as change in Gibb's free energy by ITC analysis
[12] = Clearance in CD-1 mouse at 10 mg/kg, iv measured for 24 hrs by UPLC analysis; format: ADME, organism-based; details: in vivo
Enterococcus faecium [13] = assay: Antibacterial activity against vancomycin-resistant Enterococcus faecium harboring VanA phenotype incubated for 16 to 24 hrs by CLSI based broth microdilution method; format: functional; details: time 16-24 hrs
Escherichia coli [14] = assay: Antibacterial activity against Escherichia coli AB1157 incubated for 16 to 24 hrs by CLSI based broth microdilution method; format: functional; details: time 16-24 hrs
Enterococcus faecalis [15] = assay: Antibacterial activity against Enterococcus faecalis clinical isolate incubated for 16 to 24 hrs by CLSI based broth microdilution method; format: functional; details: time 16-24 hrs
Escherichia coli [16] = assay: Induction of cytoplasmic membrane permeabilization in Escherichia coli AB1157 at 16 ug/ml measured for 40 mins by PI/NPN staining based assay; format: functional, organism-based; details: dose 16.0 µg/ml
[17] = test system: Staphylococcus epidermidis; assay: Antibacterial activity against methicillin-resistant Staphylococcus epidermidis clinical isolate incubated for 16 to 24 hrs by CLSI based broth microdilution method; format: functional; details: time 16-24 hrs
Enterococcus faecium [18] = assay: Antibacterial activity against vancomycin-resistant Enterococcus faecium harboring VanA phenotype clinical isolate incubated for 16 to 24 hrs by CLSI based broth microdilution method; format: functional; details: time 16-24 hrs
Staphylococcus aureus [19] = assay: Antibacterial activity against Staphylococcus aureus Mu50 assessed as fold decrease in MIC at 1:1 ratio of compound and Ac2KAA at […] incubated for 16 to 24 hrs by absorbance based assay relative to control; format: functional; details: dose 128 µg/ml; time 16-24 hrs
Enterococcus faecium [20] = assay: Potency index, ratio of Norvancomycin MIC to test compound MIC for vancomycin-resistant Enterococcus faecium incubated for 16 to 24 hrs by CLSI based broth microdilution method; format: functional; details: time 16-24 hrs
Acinetobacter baumannii [21] = assay: Potency index, ratio of Vancomycin MIC to test compound MIC for Carbapenem-resistant Acinetobacter baumannii clinical isolate incubated for 16 to 24 hrs by CLSI based broth microdilution method; format: functional; details: time 16-24 hrs
Enterococcus faecium [22] = assay: Bacteriostatic activity against Enterococcus faecium SC-2022-D2-059 harboring VanA phenotype at 1 to 8 times MIC measured after 24 hrs by time kill assay; format: functional, organism-based
[23] = AUClast in CD-1 mouse at 10 mg/kg, iv measured for 24 hrs by UPLC analysis; format: ADME, organism-based; details: in vivo
Escherichia coli [24] = assay: Bactericidal activity against Escherichia coli AB1157 assessed as reduction in bacterial count at 8 times MIC measured after 24 hrs by time kill assay; format: functional
Staphylococcus aureus [25] = assay: Potency index, ratio of Norvancomycin MIC to test compound MIC for vancomycin-intermediate Staphylococcus aureus incubated for 16 to 24 hrs by CLSI based broth microdilution method; format: functional; details: time 16-24 hrs
Peptidoglycan [26] = assay: Binding affinity to Ac-Lys(Ac)-D-Ala-D-Ala lipid II model peptide moiety assessed as change in Gibb's free energy by ITC analysis
Staphylococcus aureus [27] = assay: Antibacterial activity against Staphylococcus aureus Mu50 at 1:1 ratio of compound and phosphatidylglycerol at […] incubated for 16 to 24 hrs by absorbance based assay; format: functional, organism-based; details: dose 128.0 µg/ml, time 16-24 hrs
Staphylococcus aureus [28] = assay: Antibacterial activity against vancomycin-intermediate Staphylococcus aureus incubated for 16 to 24 hrs by CLSI based broth microdilution method; format: functional; details: time 16-24 hrs
Escherichia coli [29] = assay: Induction of inner membrane permeabilization in Escherichia coli AB1157 measured for 50 mins by PI staining based analysis; format: functional, organism-based; details: dose 1-128 µg/ml
Staphylococcus aureus [30] = assay: Potency index, ratio of Vancomycin MIC to test compound MIC for vancomycin-intermediate Staphylococcus aureus incubated for 16 to 24 hrs by CLSI based broth microdilution method; format: functional; details: time 16-24 hrs
Staphylococcus aureus [31] = assay: Antibacterial activity against methicillin-resistant Staphylococcus aureus clinical isolate incubated for 16 to 24 hrs by CLSI based broth microdilution method; format: functional; details: time 16-24 hrs
Staphylococcus aureus [32] = assay: Antibacterial activity against methicillin-susceptible Staphylococcus aureus incubated for 16 to 24 hrs by CLSI based broth microdilution method; format: functional; details: time 16-24 hrs
Peptidoglycan [33] = assay: Binding affinity to Ac-Lys(Ac)-D-Ala-D-Ala lipid II model peptide moiety assessed as association constant by ITC analysis
Staphylococcus hominis = assay: Antibacterial activity against methicillin-resistant Staphylococcus hominis clinical isolate incubated for 16 to 24 hrs by CLSI based broth microdilution method; format: functional; details: time 16-24 hrs
Staphylococcus aureus [34] = assay: Inhibition of peptidoglycan biosynthesis in Staphylococcus aureus MRSA252 assessed as increase in accumulation of Park's nucleotide at 0.5 ug/ml incubated for 2 hrs by RP-HPLC analysis; format: functional, organism-based; details: dose 0.5 µg/ml
Staphylococcus aureus [35] = assay: Post-antibiotic effect in Staphylococcus aureus MRSA252 assessed as decrease in bacterial titer at 20 times measured after 7 hrs; format: functional
Klebsiella pneumoniae = assay: Antibacterial activity against Klebsiella pneumoniae clinical isolate incubated for 16 to 24 hrs by CLSI based broth microdilution method; format: functional; details: time 16-24 hrs
Peptidoglycan [36] = assay: Binding affinity to Ac-Lys(D-isoAsp)-D-Ala-D-Ala lipid II model peptide moiety assessed as association constant by ITC analysis
[37] = AUC (infinity) in CD-1 mouse at 10 mg/kg, iv measured for 24 hrs by UPLC analysis; format: ADME, organism-based; details: in vivo
Escherichia coli [38] = assay: Potency index, ratio of Vancomycin MIC to test compound MIC for Escherichia coli […] incubated for 16 to 24 hrs by CLSI based broth microdilution method; format: functional; details: time 16-24 hrs
Peptidoglycan [39] = assay: Binding affinity to Ac-Lys(D-isoAsp)-D-Ala-D-Ala lipid II model peptide moiety assessed as change in Gibb's free energy by ITC analysis

CC(C)C[C@@H](N)C(=O)N[C@H]1C(=O)N[C@@H](CC(N)=O)C(=O)N[C@H]2C(=O)N[C@H]3C(=O)N[C@H](C(=O)N[C@H](C(=O)NCc4ccc(-c5ccc(CNC(=N)N)cc5)cc4)c4cc(O)cc(O)c4-c4cc3ccc4O)[C@H](O)c3ccc(c(Cl)c3)Oc3cc2cc(c3O[C@@H]2O[C@H](CO)[C@@H](O)[C@H](O)[C@H]2O[C@H]2C[C@](C)(N)[C@H](O)[C@H](C)O2)Oc2ccc(cc2Cl)[C@H]1O
Activity (Staphylococcus aureus [1]): Active | Activity (Enterococcus faecalis [2]): Dose-Dependent Effect | MIC (Acinetobacter baumannii [3]): 64 µg/mL (≈ 38.3 µM) | Activity (Staphylococcus aureus [4]): inactive | Activity (Staphylococcus aureus [5]): inactive | Activity (Escherichia coli [6]): 2 log10CFU/ml | Ratio (Enterococcus faecium [7]): 2 | Activity (Escherichia coli [8]): Dose-Dependent Effect | Activity (Staphylococcus aureus [9]): Dose-Dependent Effect | Activity (Staphylococcus aureus [10]): Active | deltaG (Peptidoglycan [11]): -8.69 kcal/mol | clearance [12]: 4.2 mL/min/kg | MIC (Enterococcus faecium [13]): 4 µg/mL (≈ 2.39 µM) | MIC (Escherichia coli [14]): 8 µg/mL (≈ 4.79 µM) | MIC (Enterococcus faecalis [15]): ≤ 0.03 µg/mL | Activity (Escherichia coli [16]): Active | MIC [17]: ≤ 0.03 µg/mL | MIC (Enterococcus faecium [18]): 2 µg/mL (≈ 1.2 µM) | fold change (FC) (Staphylococcus aureus [19]): 2 | Ratio (Enterococcus faecium [20]): 2 | Ratio (Acinetobacter baumannii [21]): 2 | Activity (Enterococcus faecium [22]): Active | AUC(0-t) at 24 h [23]: 28400 ng·h/mL | Activity (Escherichia coli [24]): 3 log10CFU/ml | Ratio (Staphylococcus aureus [25]): 2 | deltaG (Peptidoglycan [26]): -8.35 kcal/mol | Activity (Staphylococcus aureus [27]): Active | MIC (Staphylococcus aureus [28]): 1 µg/mL (≈ 0.598 µM) | Activity (Escherichia coli [29]): Dose-Dependent Effect | Ratio (Staphylococcus aureus [30]): 2 | MIC (Staphylococcus aureus [31]): ≤ 0.03 µg/mL | MIC (Staphylococcus aureus [32]): ≤ 0.063 µg/mL | Ka (Peptidoglycan [33]): 1.32e+06 M⁻¹ | MIC (Staphylococcus hominis): ≤ 0.03 µg/mL | Activity (Staphylococcus aureus [34]): Active | Activity (Staphylococcus aureus [35]): 1.2 log10CFU/ml | MIC (Klebsiella pneumoniae): > 128 µg/mL | Ka (Peptidoglycan [36]): 687000 M⁻¹ | AUC(0-inf) [37]: 40000 ng·h/mL | Ratio (Escherichia coli [38]): 2 | deltaG (Peptidoglycan [39]): -7.96 kcal/mol
